Measurements as given in publication PMC7726444 (Frontiers in Pharmacology, 2020).
Read-outs that look alike come from different tables or passages of the source.

What was measured:
[1] = molecular target: T1, doubly truncated TPH1 (ΔNH102-ΔCOOH402) (Homo sapiens, UniProt P17752); test: Tryptophan hydroxylase enzymatic activity assay (HPLC quantification of 5-OH-Trp), doubly truncated TPH1; type: biochemical; settings: for IC50: doubly truncated TPH1, 20 µM L-Trp, 200 µM BH4, 37°C, mean (95% confidence interval), three experiments in duplicate; for fold less potent inhibitor of TPH1 than omeprazole: relative to omeprazole TPH1 IC50; for reduction of TPH1 activity: 100 µM compound, preliminary activity assay
T1 construct: The ΔNH102-ΔCOOH402 human TPH1 gene was cloned; six-His (C); made in house
T1 sequence (P17752 102-402, stated change not applied): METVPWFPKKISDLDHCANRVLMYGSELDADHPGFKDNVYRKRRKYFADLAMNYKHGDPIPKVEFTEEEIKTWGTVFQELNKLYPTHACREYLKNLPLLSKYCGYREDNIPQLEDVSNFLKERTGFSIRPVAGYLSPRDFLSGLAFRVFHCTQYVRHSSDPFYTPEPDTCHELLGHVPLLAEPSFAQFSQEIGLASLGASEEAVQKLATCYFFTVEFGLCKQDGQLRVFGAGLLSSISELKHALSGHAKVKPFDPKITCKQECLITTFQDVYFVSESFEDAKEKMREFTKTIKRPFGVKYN

[2] = molecular target: T2, WT full-length TPH2 (Homo sapiens, UniProt Q8IWU9); test: Tryptophan hydroxylase enzymatic activity assay, WT full-length TPH2; type: biochemical; settings: mean (95% confidence interval), three experiments in duplicate
T2 construct: both the doubly truncated TPH1 protein and WT full-length TPH2 protein; made in house
T2 sequence (Q8IWU9 1-490): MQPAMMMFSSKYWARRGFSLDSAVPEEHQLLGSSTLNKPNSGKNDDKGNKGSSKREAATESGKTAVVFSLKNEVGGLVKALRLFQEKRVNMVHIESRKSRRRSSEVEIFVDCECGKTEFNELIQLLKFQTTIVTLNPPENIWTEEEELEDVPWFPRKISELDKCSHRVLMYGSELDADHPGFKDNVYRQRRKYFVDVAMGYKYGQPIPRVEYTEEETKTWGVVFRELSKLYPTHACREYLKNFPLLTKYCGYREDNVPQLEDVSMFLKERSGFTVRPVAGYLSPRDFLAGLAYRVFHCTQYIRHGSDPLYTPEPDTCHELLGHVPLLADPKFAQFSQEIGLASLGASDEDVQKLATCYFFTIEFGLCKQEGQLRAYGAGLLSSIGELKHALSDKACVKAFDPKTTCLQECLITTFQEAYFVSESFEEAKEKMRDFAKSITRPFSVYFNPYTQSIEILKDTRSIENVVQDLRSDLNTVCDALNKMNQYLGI

[3] = molecular target: T3, MAO-A (Homo sapiens, UniProt P21397); test: MAO-A enzymatic activity assay (MAO-A Inhibitor Screening Kit, fluorimetric detection of H2O2); type: biochemical; settings: 25°C, 15 min kinetic read; mean (95% confidence interval), three experiments
T3 construct: purchased BioVision, Inc, Milpitas, CA
T3 sequence (P21397 1-527): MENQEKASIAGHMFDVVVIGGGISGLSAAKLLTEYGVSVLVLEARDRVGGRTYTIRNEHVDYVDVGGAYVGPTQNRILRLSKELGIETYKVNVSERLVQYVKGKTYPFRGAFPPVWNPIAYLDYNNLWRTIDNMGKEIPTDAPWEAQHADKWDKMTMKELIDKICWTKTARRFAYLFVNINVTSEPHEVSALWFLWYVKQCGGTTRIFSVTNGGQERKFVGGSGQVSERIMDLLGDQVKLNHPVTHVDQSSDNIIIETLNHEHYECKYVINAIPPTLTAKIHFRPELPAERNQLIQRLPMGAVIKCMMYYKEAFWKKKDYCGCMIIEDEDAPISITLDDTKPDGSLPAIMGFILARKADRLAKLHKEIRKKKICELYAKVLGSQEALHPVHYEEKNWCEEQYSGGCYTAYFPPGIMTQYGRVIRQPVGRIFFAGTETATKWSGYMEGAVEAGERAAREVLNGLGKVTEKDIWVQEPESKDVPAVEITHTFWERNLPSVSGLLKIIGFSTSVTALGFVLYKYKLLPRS
Experimental: The experiments were conducted following the manufacturer’s (BioVision, Inc, Milpitas, CA) instructions and were based on the fluorimetric detection of H2O2, a byproduct of the enzymatic activity of MAO-A, by measuring the fluorescence (Excitation/Emission at 535/587 nm) kinetically at 25°C for 15 min using a Tecan Spark plate reader (Tecan Group Ltd, Männedorf, Switzerland).
Relative inhibition of MAO-A was calculated as a percentage using the following Eq. 2: %Relative inhibition=((Slope of EC−Slope of S)/Slope of EC)×100 (2)
The slopes for all samples, either containing Enzyme Control (EC) or test substance (S), were calculated by dividing the net change in relative fluorescence units (ΔRFU; RFU2–RFU1) by the time interval (Δt; t2 –t1).

[4] = molecular target: T3, MAO-A; parameters: method as in Petzer et al., 2013; settings: ref Petzer et al., 2013; cited from earlier work

Structure (SMILES)	IC50 [1] [µM]	fold less potent inhibitor of TPH1 than omeprazole [1] [fold]	IC50 [2] [µM]	IC50 [3] [µM]	reduction of TPH1 activity [1]	IC50 [4] [µM]
COc1ccnc(C[S+]([O-])c2nc3cc(-n4cccc4)ccc3[nH]2)c1C (stereo not drawn) [Ilaprazole]	–	–	0.53	29	–	–
Cc1c(OCC(F)(F)F)ccnc1C[S+]([O-])c1nc2ccccc2[nH]1 (stereo not drawn) [Lansoprazole]	24.6	6	5.21	251	–	–
COCCCOc1ccnc(C[S+]([O-])c2nc3ccccc3[nH]2)c1C (stereo not drawn) [Rabeprazole]	7.57	–	2.13	12.8	–	–
CC1CCc2cc(F)cc3c(=O)c(C(=O)O)cn1c23 (stereo not drawn) [flumequine]	~100	–	–	–	more than 50%	–
COC(=O)C1=C(C#N)NC(C)=C(C(=O)OC(C)C)C1c1cccc([N+](=O)[O-])c1 (stereo not drawn) [nilvadipine]	~100	–	–	–	more than 50%	–

Continued, in another order:

IC50 [1] [µM]	fold less potent inhibitor of TPH1 than omeprazole [1] [fold]	IC50 [2] [µM]	IC50 [3] [µM]	reduction of TPH1 activity [1]	Structure (SMILES)	IC50 [4] [µM]
18.8	6	3.36	137	–	Cc1c(OCC(F)(F)F)ccnc1C[S@@+]([O-])c1nc2ccccc2[nH]1 [(R)-lansoprazole]	–
3.76	–	2.15	18	–	COc1ccc2nc([S@@+]([O-])Cc3ncc(C)c(OC)c3C)[nH]c2c1 [Esomeprazole]	23
21.7	6	8.2	462	–	COc1ccnc(C[S+]([O-])c2nc3ccc(OC(F)F)cc3[nH]2)c1OC (stereo not drawn) [Pantoprazole]	–
2.16	–	4.9	29.2	–	COc1ccc2[nH]c([S+]([O-])Cc3ncc(C)c(OC)c3C)nc2n1 (stereo not drawn) [Tenatoprazole]	–
~100	–	–	–	more than 50%	CSc1nc2cc(Cl)c(Oc3cccc(Cl)c3Cl)cc2[nH]1 [triclabendazole]	–
